The target of one series is cdk2/cyclinE (Homo sapiens, UniProt P24941). Description: Cyclin dependent kinase 2 assay (cdk2/cyclinE), 32P incorporation, filter plate. The class given is biochemical. Conditions: retinoblastoma substrate, 12 mM ATP, 25° C., 15 minutes; read-out: Inhibition of Cdks: IC50 Cdk2/E. On the procedure:
(§1) Cyclin Dependent Kinase 1 and 2 Assays (cdk1/cyclinB, cdk2/cyclinA, cdk2/cyclinE)
(§2) Enzyme assays for IC50 determinations and kinetic evaluation are performed in a 96-well filter plate (Millipore MADVN6550) in a total volume of 0.1 mL of 20 mM TRIS (tris[hydroxymethyl]aminomethane), at pH 7.4, 50 mM NaCl, 1 mM dithiothreitol, 10 mM MgCl2, […] containing 0.25 μCi of [^32P]ATP, 20 ng of enzyme (either cdk1/B, cdk2/A, or cdk2E), 1 μg retinoblastoma and appropriate dilutions of the particular invention compound. All components except the ATP are added to the wells, and the plate is placed on a plate mixer for 2 minutes. The reaction is begun by addition of [^32P]ATP, and the plate is incubated at 25° C. for 15 minutes. The reaction is terminated by addition of 0.1 mL of 20% TCA. The plate is kept at 4° C. for at least 1 hour to allow the substrate to precipitate. The wells are then washed 5 times with 0.2 mL of 10% TCA and ^32P incorporation determined with a beta plate counter (Wallac Inc., Gaithersburg, Md.).

A further series deals with cdk2/cyclinA (Homo sapiens, UniProt P24941). Description: Cyclin dependent kinase 2 assay (cdk2/cyclinA), 32P incorporation, filter plate. The class given is biochemical. Conditions: retinoblastoma substrate, 12 mM ATP, 25° C., 15 minutes; read-out: Inhibition of Cdks: IC50 Cdk2/A. Here is the method: as §1, §2
The next series has as its target cdk4/cyclinD (Homo sapiens, UniProt P11802). Description: Cyclin Dependent Kinase 4 (cdk-4) Assay, 32P incorporation, filter plate. The class given is biochemical. Conditions: retinoblastoma substrate, 25 μM ATP, 25° C., 15 minutes; read-out: Inhibition of Cdks: IC50 Cdk4D. Here is the method:
Cyclin Dependent Kinase 4 (cdk-4) Assay
Enzyme assays for IC50 determinations and kinetic evaluation are performed in 96-well filter plates (Millipore MADVN6550). The total volume is 0.1 mL containing a final concentration of 20 mM TRIS (tris[hydroxymethyl]aminomethane), at pH 7.4, 50 mM NaCl, 1 mM dithiothreitol, 10 mM MgCl2, 25 μM ATP containing 0.25 μCi of [^32P]ATP, 20 ng of cdk4, 1 μg of retinoblastoma, and appropriate dilutions of a compound of the present invention. All components except the ATP are added to the wells, and the plate is placed on a plate mixer for 2 minutes. The reaction is started by adding [^32P]ATP, and the plate is incubated at 25° C. for 15 minutes. The reaction is terminated by addition of 0.1 mL of 20% trichloroacetic acid (TCA). The plate is kept at 4° C. for at least 1 hour to allow the substrate to precipitate. The wells are then washed 5 times with 0.2 mL of 10% TCA and ^32P incorporation is determined with a beta plate counter (Wallac Inc., Gaithersburg, Md.).

The target of the next series is cdk1/cyclinB (Homo sapiens, UniProt P06493). The series can be described thus: Cyclin dependent kinase 1 assay (cdk1/cyclinB), 32P incorporation, filter plate. The series is classed as biochemical. Conditions: retinoblastoma substrate, 12 mM ATP, 25° C., 15 minutes; read-out: Inhibition of Cdks: IC50 Cdk1/B. Here is the method: as §1, §2

The values below come from patent US7053070B2, “Pyrido[2,3-d]pyrimidine-2,7-diamine kinase inhibitors” (Warner-Lambert Company, priority 2000, dated 2006).

Structures can show the parent of a compound that is named as a salt.

Sequence of cdk4/cyclinD (P11802 whole entry, species assumed): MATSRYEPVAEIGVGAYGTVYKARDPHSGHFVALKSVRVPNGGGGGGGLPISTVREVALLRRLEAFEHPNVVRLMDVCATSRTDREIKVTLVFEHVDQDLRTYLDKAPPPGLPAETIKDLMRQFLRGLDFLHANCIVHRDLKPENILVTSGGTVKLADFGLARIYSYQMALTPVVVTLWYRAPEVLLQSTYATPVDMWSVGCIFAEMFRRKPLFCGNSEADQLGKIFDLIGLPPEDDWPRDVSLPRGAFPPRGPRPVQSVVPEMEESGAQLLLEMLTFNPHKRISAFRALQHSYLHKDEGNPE
Sequence of cdk4/cyclinD (P24385 whole entry partner, species assumed): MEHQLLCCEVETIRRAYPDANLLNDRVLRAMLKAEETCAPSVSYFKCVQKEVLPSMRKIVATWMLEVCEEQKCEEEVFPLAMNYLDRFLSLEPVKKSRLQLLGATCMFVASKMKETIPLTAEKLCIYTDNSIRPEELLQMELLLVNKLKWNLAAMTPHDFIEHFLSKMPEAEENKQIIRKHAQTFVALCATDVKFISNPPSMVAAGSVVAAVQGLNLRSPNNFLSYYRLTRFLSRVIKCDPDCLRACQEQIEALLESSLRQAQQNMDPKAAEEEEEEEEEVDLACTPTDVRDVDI
Sequence of cdk1/cyclinB (P06493 whole entry, species assumed): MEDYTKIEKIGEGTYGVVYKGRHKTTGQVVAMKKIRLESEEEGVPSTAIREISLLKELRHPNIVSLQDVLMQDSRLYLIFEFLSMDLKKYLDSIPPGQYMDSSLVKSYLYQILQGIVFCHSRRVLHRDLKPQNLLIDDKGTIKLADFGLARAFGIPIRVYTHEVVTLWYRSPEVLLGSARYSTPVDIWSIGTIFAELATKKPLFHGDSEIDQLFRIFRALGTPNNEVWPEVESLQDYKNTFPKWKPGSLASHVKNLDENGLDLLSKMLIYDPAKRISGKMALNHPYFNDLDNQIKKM
Sequence of cdk1/cyclinB (P14635 whole entry partner, species assumed): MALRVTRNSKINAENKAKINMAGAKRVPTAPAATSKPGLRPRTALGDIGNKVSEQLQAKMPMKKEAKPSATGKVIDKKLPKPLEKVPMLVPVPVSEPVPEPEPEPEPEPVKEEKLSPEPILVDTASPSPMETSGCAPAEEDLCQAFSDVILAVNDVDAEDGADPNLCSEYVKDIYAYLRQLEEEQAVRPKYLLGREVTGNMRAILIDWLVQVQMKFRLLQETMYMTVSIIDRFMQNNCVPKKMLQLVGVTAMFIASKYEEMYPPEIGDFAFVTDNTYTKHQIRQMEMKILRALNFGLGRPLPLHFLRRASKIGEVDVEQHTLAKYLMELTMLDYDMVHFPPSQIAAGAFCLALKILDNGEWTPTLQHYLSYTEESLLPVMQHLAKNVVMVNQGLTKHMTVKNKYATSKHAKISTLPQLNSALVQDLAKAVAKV

As to `CC(C)NC(=O)Nc1ccc2cnc(Nc3ccc(N4CCNCC4)cc3)nc2n1` (as salt: salt) [Compound 48, 1-Isopropyl-3-[2-(4-piperazin-1-yl-phenylamino)-pyrido[2,3-d]pyrimidin-7-yl]-urea], the melting point (as a rule, the temperature, or range, at which the solid turns liquid) was 190 °C (dec.).
Still for that read-out and setting: the figure for `O=C(Nc1ccc2cnc(Nc3ccc(N4CCNCC4)cc3)nc2n1)NC1CCCC1` (as salt: salt) [Compound 51, 1-Cyclopentyl-3-[2-(4-piperazin-1-yl-phenylamino)-pyrido[2,3-d]pyrimidin-7-yl]-urea] is 210 to 213 °C (dec.).
As to `C[C@@H]1CN(c2ccc(Nc3ncc4cc(Br)c(NC(=O)NC5CCCCC5)nc4n3)cc2)C[C@H](C)N1` (as salt: salt) [Compound 95, 1-{6-Bromo-2-[4-(cis-3,5-dimethyl-piperazin-1-yl)-phenylamino]-pyrido[2,3-d]pyrimidin-7-yl}-3-cyclohexyl-urea], the melting point is 198 °C (dec.).
As to `Cc1cc(NC(=O)NC(C)(C)C)nc2nc(Nc3ccc(N4CCNCC4)cc3)ncc12` [Compound 4, 1-tert-Butyl-3-[5-methyl-2-(4-piperazin-1-yl-phenylamino)-pyrido[2,3-d]pyrimidin-7-yl]-urea], the melting point is 230 to 232 °C (dec.). The IC50 on cdk2/cyclinE is above 5 µM. Also, the IC50 at cdk2/cyclinA was above 5 µM. Also, the IC50 at cdk4/cyclinD worked out at 1.5 µM. Further, at cdk1/cyclinB, the IC50 was above 5 µM.
As for `CC(=O)N1CCN(c2ccc(Nc3ncc4ccc(NC(=O)NC(C)(C)C)nc4n3)cc2)CC1` [Compound 5, 1-{2-[4-(4-Acetyl-piperazin-1-yl)-phenylamino]-pyrido[2,3-d]pyrimidin-7-yl}-3-tert-butyl-urea], the melting point is 206 to 208 °C (dec.). Moreover, the IC50 at cdk2/cyclinE was found to be 0.13 µM. Moreover, the IC50 on cdk2/cyclinA came out at 0.13 µM. In addition, the IC50 at cdk4/cyclinD is 0.037 µM. Moreover, the IC50 on cdk1/cyclinB was determined as 0.463 µM.
Take `Cc1cc(NC(=O)NC2CCCCC2)nc2nc(Nc3ccc(N4CCNCC4)cc3)ncc12` [Compound 12, 1-Cyclohexyl-3-[5-methyl-2-(4-piperazin-1-yl-phenylamino)-pyrido[2,3-d]pyrimidin-7-yl]-urea]: the melting point is 238 °C (dec.). Moreover, the IC50 on cdk2/cyclinE was above 5 µM. The IC50 on cdk2/cyclinA is above 5 µM. Moreover, the IC50 at cdk4/cyclinD was found to be 2.1 µM. The IC50 on cdk1/cyclinB is above 5 µM.
`CCNC(=O)Nc1cc(C)c2cnc(Nc3ccc(N4CCNCC4)cc3)nc2n1` [Compound 28, 1-Ethyl-3-[5-methyl-2-(4-piperazin-1-yl-phenylamino)-pyrido[2,3-d]pyrimidin-7-yl]-urea] came in with a melting point of 220 to 222 °C. Also, the IC50 at cdk2/cyclinE was above 5 µM. Also, the IC50 on cdk2/cyclinA was above 5 µM. Further, the IC50 on cdk4/cyclinD is above 5 µM. Moreover, the IC50 on cdk1/cyclinB is above 5 µM.
For `C[C@@H]1CN(c2ccc(Nc3ncc4ccc(NC(=O)NC(C)(C)C)nc4n3)cc2)C[C@H](C)N1` [Compound 49, 1-tert-Butyl-3-{2-[4-(cis-3,5-dimethyl-piperazin-1-yl)-phenylamino]-pyrido[2,3-d]pyrimidin-7-yl}-urea], the melting point was 245 °C (dec.). In addition, the IC50 at cdk2/cyclinE was 0.475 µM. The IC50 on cdk2/cyclinA stood at 0.528 µM. Further, the IC50 at cdk4/cyclinD was found to be 0.05 µM. The IC50 at cdk1/cyclinB amounted to 0.911 µM.
In the same order, the values of `C[C@@H]1CN(c2ccc(Nc3ncc4ccc(NC(=O)NC5CCCCC5)nc4n3)cc2)C[C@H](C)N1` [Compound 50, 1-Cyclohexyl-3-{2-[4-(cis-3,5-dimethyl-piperazin-1-yl)-phenylamino]-pyrido[2,3-d]pyrimidin-7-yl}-urea] are 228 °C (dec.), 0.035 µM, 0.022 µM, 0.007 µM and 0.069 µM.
In the same order, the values of `C[C@@H]1CN(c2ccc(Nc3ncc4cc(F)c(NC(=O)NC5CCCCC5)nc4n3)cc2)C[C@H](C)N1` [Compound 52, 1-Cyclohexyl-3-{2-[4-(cis-3,5-dimethyl-piperazin-1-yl)-phenylamino]-6-fluoro-pyrido[2,3-d]pyrimidin-7-yl}-urea] are 227 to 229 °C, 0.126 µM, 0.213 µM, 0.027 µM and 0.472 µM.
For `Cc1cc(NC(=O)NC2CCCC2)nc2nc(Nc3ccc(N4CCNCC4)cc3)ncc12` [Compound 53, 1-Cyclopentyl-3-[5-methyl-2-(4-piperazin-1-yl-phenylamino)-pyrido[2,3-d]pyrimidin-7-yl]-urea], in that order: 234 °C (dec.), above 5 µM, above 5 µM, above 5 µM and above 5 µM.
`CNC(=O)Nc1cc(C)c2cnc(Nc3ccc(N4CCNCC4)cc3)nc2n1` [Compound 64, 1-Methyl-3-[5-methyl-2-(4-piperazin-1-yl-phenylamino)-pyrido[2,3-d]pyrimidin-7-yl]-urea]: the melting point was 204 to 206 °C (dec.). For the same molecule, the IC50 at cdk2/cyclinE is above 5 µM. Also, at cdk2/cyclinA, the IC50 was above 5 µM. Moreover, at cdk4/cyclinD, the IC50 is above 5 µM. Besides, on cdk1/cyclinB, the IC50 was above 5 µM.
Take `CN(C(=O)Nc1ccc2cnc(Nc3ccc(N4CCNCC4)cc3)nc2n1)C1CCCCC1` [Compound 65, 1-Cyclohexyl-1-methyl-3-[2-(4-piperazin-1-yl-phenylamino)-pyrido[2,3-d]pyrimidin-7-yl]-urea]: the melting point was 177 °C (dec.). The IC50 at cdk2/cyclinE was above 5 µM. Besides, the IC50 on cdk2/cyclinA was above 5 µM. The IC50 at cdk4/cyclinD was above 5 µM. Also, at cdk1/cyclinB, the IC50 was above 5 µM.
As for `Cc1cc(NS(=O)(=O)N(C)C)nc2nc(Nc3ccc(N4CCNCC4)cc3)ncc12` [Compound 71], the melting point is 228 to 230 °C (dec.). Also, the IC50 on cdk2/cyclinE was above 5 µM. Moreover, the IC50 on cdk2/cyclinA was above 5 µM. The IC50 at cdk4/cyclinD was above 5 µM. Also, on cdk1/cyclinB, the IC50 was above 5 µM.
Regarding `CC(C)(C)NC(=O)Nc1ccc2cnc(Nc3ccc(N4CCN(C(=O)OC(C)(C)C)CC4)cc3)nc2n1` [Compound 79, 4-{4-[7-(3-tert-Butyl-ureido)-pyrido[2,3-d]pyrimidin-2-ylamino]-phenyl}-piperazine-1-carboxylic acid tert-butyl ester], the melting point is 225 °C (dec.). At cdk2/cyclinE, the IC50 was above 5 µM. The IC50 on cdk2/cyclinA came to 1.07 µM. Moreover, the IC50 on cdk4/cyclinD was above 5 µM. Besides, on cdk1/cyclinB, the IC50 is above 5 µM.
Take `O=C(NCCCO)Nc1ccc2cnc(Nc3ccc(N4CCNCC4)cc3)nc2n1` [Compound 81, 1-(3-Hydroxy-propyl)-3-[2-(4-piperazin-1-yl-phenylamino)-pyrido[2,3-d]pyrimidin-7-yl]-urea]: the melting point is 183 °C (dec.). Further, the IC50 on cdk2/cyclinE turned out to be 3.25 µM. The IC50 on cdk2/cyclinA came out at 1.56 µM. Moreover, the IC50 at cdk4/cyclinD was found to be 0.5 µM. The IC50 on cdk1/cyclinB was found to be 2.61 µM.
As for `C[C@@H]1CN(c2ccc(Nc3ncc4ccc(N(C)C(=O)NC5CCCCC5)nc4n3)cc2)C[C@H](C)N1` [Compound 106, 3-Cyclohexyl-1-{2-[4-(cis-3,5-dimethyl-piperazin-1-yl)-phenylamino]-pyrido[2,3-d]pyrimidin-7-}-1-methyl-urea], the melting point is 170 °C (dec.). Also, the IC50 at cdk2/cyclinE amounted to 0.44 µM. For the same molecule, the IC50 at cdk2/cyclinA stood at 0.35 µM.
